We go through seven compounds from PubChem BioAssay (NCI).

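In this assay, cells in 96-well plates receive the compound at five concentrations for 48 hours. Endpoints are linearly interpolated between the surrounding concentrations. Abbreviation: GI50, concentration required for 50% inhibition of growth. The concentration for full growth arrest is given as TGI.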

Among the test systems are U251 CNS; SK-OV-3 ovarian; NCI-H522 lung; NCI/ADR-RES ovarian; SN12C renal; SR leukemia; PC-3 prostate; HOP-62 NSCLC; UACC-257 melanoma; COLO 205 colon.
Holding throughout (assay): growth of human tumour cells (NCI), 48 h

As to `C/C(=C\c1ccn(-c2ccc(N)cc2F)n1)[C@@H]1C[C@@H]2O[C@]2(C)CCC[C@H](C)[C@H](O)[C@@H](C)C(=O)C(C)(C)[C@@H](O)CC(=O)O1`, the GI50 with U251 CNS is 0.0285 µM; in the assay with SK-OV-3 ovarian, 0.172 µM; in the assay with NCI-H522 lung, 0.0255 µM; in the assay with NCI/ADR-RES ovarian, 0.0921 µM; with SN12C renal it was 0.0768 µM; in the assay on SR leukemia it was 0.0236 µM. Besides, the GI50 with PC-3 prostate was 0.0256 µM; in the assay on HOP-62 NSCLC, 0.0384 µM; in the assay with UACC-257 melanoma it was more than 50 µM; in the assay with COLO 205 colon, 0.0172 µM. In addition, the TGI in the assay on U251 CNS is more than 50 µM; in the assay on SK-OV-3 ovarian it was more than 50 µM; in the assay with NCI-H522 lung, 0.171 µM; in the assay on NCI/ADR-RES ovarian, 1.19 µM; in the assay with SN12C renal, more than 50 µM; in the assay on SR leukemia it was more than 50 µM. Also, the TGI was more than 50 µM in the assay with PC-3 prostate, more than 50 µM in the assay with HOP-62 NSCLC, more than 50 µM with UACC-257 melanoma and 0.442 µM with COLO 205 colon.
Turning to `O=C(O)c1ccccc1Nc1ccc2nnc(-c3ccncc3)n2n1`, the GI50 in the assay with U251 CNS is 13.3 µM; with SK-OV-3 ovarian, 22 µM; with NCI-H522 lung, 10.4 µM; in the assay with NCI/ADR-RES ovarian, 18.8 µM; with SN12C renal, 3.56 µM; in the assay on SR leukemia it was 5.23 µM. Also, the GI50 with PC-3 prostate was 13.4 µM; in the assay with HOP-62 NSCLC, 15.4 µM; in the assay with UACC-257 melanoma, 10.6 µM; in the assay on COLO 205 colon it was 13 µM. The TGI with U251 CNS was 28 µM; in the assay with SK-OV-3 ovarian, more than 100 µM; in the assay with NCI-H522 lung it was 22.8 µM; with NCI/ADR-RES ovarian, 77.4 µM; in the assay on SN12C renal, 17.1 µM; with SR leukemia it was more than 100 µM. The TGI came to 31.9 µM in the assay with PC-3 prostate, 33.5 µM with HOP-62 NSCLC, 33.6 µM with UACC-257 melanoma and 30.8 µM with COLO 205 colon.
Take `Clc1ccc2c(NCCNc3nc(N4CCCC4)nc4ccccc34)ccnc2c1`: the GI50 was 1.49 µM with U251 CNS; 1.71 µM in the assay on SK-OV-3 ovarian; 1.36 µM in the assay with NCI-H522 lung; 2.78 µM in the assay on NCI/ADR-RES ovarian; 1.16 µM in the assay on SN12C renal; 0.365 µM in the assay on SR leukemia. Further, the GI50 in the assay with PC-3 prostate was 1.71 µM; with HOP-62 NSCLC, 1.49 µM; in the assay with UACC-257 melanoma it was 1.96 µM; with COLO 205 colon it was 0.147 µM. The TGI is 3.15 µM with U251 CNS; 3.16 µM with SK-OV-3 ovarian; 3.1 µM with NCI-H522 lung; 11.1 µM with NCI/ADR-RES ovarian; 3.3 µM in the assay on SN12C renal; 2.36 µM in the assay with SR leukemia. Moreover, the TGI with PC-3 prostate was 8.73 µM; with HOP-62 NSCLC it was 3.49 µM; in the assay with UACC-257 melanoma, 3.76 µM; in the assay with COLO 205 colon, 1.94 µM.
In the case of `N#Cc1nn(-c2cc(=O)[nH]c3ccc(Br)cc23)c(N)c1C#N`, the GI50 in the assay with U251 CNS was 88.1 µM; in the assay with SK-OV-3 ovarian it was more than 100 µM; with NCI-H522 lung, 22.7 µM; in the assay on NCI/ADR-RES ovarian, more than 100 µM; with SN12C renal it was more than 100 µM; in the assay on SR leukemia, 74.2 µM. Also, the GI50 in the assay on PC-3 prostate, in the assay on HOP-62 NSCLC, in the assay on UACC-257 melanoma and with COLO 205 colon was more than 100 µM in each case. Moreover, the TGI was more than 100 µM with U251 CNS; more than 100 µM in the assay with SK-OV-3 ovarian; 86.4 µM in the assay on NCI-H522 lung; more than 100 µM in the assay with NCI/ADR-RES ovarian; more than 100 µM in the assay on SN12C renal; more than 100 µM in the assay with SR leukemia. The TGI in the assay with PC-3 prostate, in the assay on HOP-62 NSCLC, with UACC-257 melanoma and in the assay with COLO 205 colon was more than 100 µM in each case.
Regarding `O=S(=O)(Nc1ccccn1)c1ccc(N=Nc2ccc(O)c3ncccc23)cc1`, the GI50 in the assay with U251 CNS was 0.388 µM; in the assay on SK-OV-3 ovarian, 1.7 µM; with NCI-H522 lung it was 0.418 µM; with NCI/ADR-RES ovarian, 1.02 µM; with SN12C renal, 1.02 µM; in the assay with SR leukemia, 0.647 µM. In addition, the GI50 in the assay with PC-3 prostate is 1.29 µM; in the assay on HOP-62 NSCLC, 1.14 µM; in the assay on UACC-257 melanoma it was 1.39 µM; in the assay on COLO 205 colon, 7.62 µM. In addition, the TGI is 7.04 µM in the assay on U251 CNS; 6.59 µM with SK-OV-3 ovarian; 2.14 µM in the assay on NCI-H522 lung; 12.8 µM in the assay with NCI/ADR-RES ovarian; more than 29.8 µM with SN12C renal; 19.3 µM in the assay with SR leukemia. In addition, the TGI is more than 100 µM in the assay with PC-3 prostate, 8.88 µM in the assay with HOP-62 NSCLC, 8.02 µM in the assay with UACC-257 melanoma and 26.2 µM in the assay on COLO 205 colon.
For the compound `Fc1cccc(-c2[nH]nc3nc(Nc4cccnc4)sc23)c1`, the GI50 in the assay with U251 CNS was 1.01 µM; in the assay with SK-OV-3 ovarian, more than 100 µM; in the assay with NCI-H522 lung, 13.7 µM; in the assay on NCI/ADR-RES ovarian it was 1.83 µM; with SN12C renal, more than 100 µM; with SR leukemia, 0.979 µM. Also, the GI50 with PC-3 prostate is 6.34 µM; in the assay on HOP-62 NSCLC, more than 100 µM; in the assay with UACC-257 melanoma, more than 100 µM; in the assay on COLO 205 colon, 3.3 µM. Also, the TGI in the assay on U251 CNS, in the assay with SK-OV-3 ovarian, with NCI-H522 lung, with NCI/ADR-RES ovarian, in the assay with SN12C renal and in the assay with SR leukemia was more than 100 µM each time. For the same compound, the TGI with PC-3 prostate, in the assay on HOP-62 NSCLC, with UACC-257 melanoma and with COLO 205 colon was more than 100 µM throughout.
Turning to `COc1cc(C)c(NC(=O)CN(C)C)cc1Nc1nc(Nc2cccc(F)c2C(N)=O)c2cc[nH]c2n1`, the GI50 was 3.12 µM in the assay with U251 CNS; 2.67 µM in the assay with SK-OV-3 ovarian; 0.623 µM in the assay with NCI-H522 lung; 2.64 µM in the assay with NCI/ADR-RES ovarian; 3.86 µM with SN12C renal; 0.00977 µM in the assay with SR leukemia. Besides, the GI50 with PC-3 prostate is 2.21 µM; with HOP-62 NSCLC, 1.24 µM; in the assay on UACC-257 melanoma, 0.0555 µM; with COLO 205 colon, 0.014 µM. In addition, the TGI in the assay on U251 CNS was 6.86 µM; with SK-OV-3 ovarian it was 6.29 µM; in the assay on NCI-H522 lung, 3.69 µM; with NCI/ADR-RES ovarian, 7.59 µM; with SN12C renal, 8.23 µM; in the assay on SR leukemia, 2.89 µM. Moreover, the TGI in the assay on PC-3 prostate came to 7.56 µM; in the assay with HOP-62 NSCLC, 5.54 µM; in the assay with UACC-257 melanoma, 4.05 µM; in the assay with COLO 205 colon it was 0.552 µM.
